From patent publication US20150030615A1, “BIOMARKERS FOR CANCER STEM CELLS AND RELATED METHODS OF USE” (VERASTEM, INC., priority 2012, published 2015)
Entries after “also recorded” stand apart in the source; their conditions may differ.

System: tumorspheres of SUM159 cells
Experiment: gene expression in sequentially passaged tumorspheres treated with chemotherapeutic agents
Assay type: cell-based, human
Settings: paclitaxel-treated SUM159 tumorspheres; 11 CSC-associated genes; percentage change normalized to primary SUM159 tumorspheres (FIG. 14)

CC(=O)O[C@H]1C(=O)[C@@]2(C)[C@H]([C@H](OC(=O)c3ccccc3)[C@]3(O)C[C@H](OC(=O)[C@H](O)[C@@H](NC(=O)c4ccccc4)c4ccccc4)C(C)=C1C3(C)C)[C@]1(OC(C)=O)CO[C@@H]1C[C@@H]2O [paclitaxel]
expression of upregulated cancer stem cell associated genes: enhancement of the upregulation; also recorded: enhanced further
